The target in test [1] is TNF-α converting enzyme (TACE) (Homo sapiens, UniProt P78536). In words: Test procedure for measuring TACE inhibition (fluorescent peptidyl substrate). The format is biochemical. Put shortly: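 TACE (1 μg/mL final) preincubated 10 min at room temperature with 1 μM compound in 10 mM Tris pH 7.4, 10% glycerol, DMSO <1%. Treated rates tested against control by Dunnett's test (p<0.05).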

Test [2] concerns THP-1 cells. The test can be described thus: Human monocytic THP-1 cell differentiation assay for soluble proteins (THP-1 soluble protein assay). The note with it: LPS-stimulated THP-1 cells, soluble protein not given. The format is cell-based. The text has this: Mitogenic stimulation of THP-1 cells cause differentiation into macrophage like cells with concomitant secretion of tumor necrosis factor (TNF-α) and TNF receptor (TNF-R p75/80 and TNF-R p55160) and Interleukin-8 (IL-8), among other proteins. In addition, non-stimulated THP-1 cells shed both the p75/80 and the p55/60 receptors over time. The release of membrane bound TNF-α and possibly TNF-R p75/80 and TNF-R p55/60, but not IL-8, is mediated by an enzyme called TNF-α converting enzyme or TACE.
THP-1 cells (from ATCC) are a human monocytic cell line which were obtained from the peripheral blood of a person with acute monocytic leukemia. They can be grown in culture and differentiated into macrophage like cells by stimulation with mitogens.
Each vial of cells are cultured for about two weeks prior to being used for an assay and then are used for only 4 to 6 weeks to screen compounds.
Cell exposure to DMSO was limited to 0.1% final concentration. […] Compounds can be evaluated for their effect on basal (non-stimulated) shedding of the receptors by replacing the LPS with […] of THP-1 media.
Plates are placed into an incubator set at 5% CO2 and at 37° C. After 4 hours of incubation, […] of tissue culture supernatant (TCS) is removed for use in an TNF-α ELISA. Following 24 hours of incubation, […] of TCS is removed and used for analysis in TNF-R p75/80, TNF-R p55160 and IL-8 ELISAs.
In addition, at the 24 hours timepoint, and the cells for each treatment group are collected by resuspension in 500 μl/well of THP-1 media and transferred into a FACS tube. […] The samples are run on a Becton Dickinson FaxCaliber FLOW cytometry machine and the amount of dye taken up by each cell is measured in the high red wavelength (FL3). Only cells with compromised membranes (dead or dying) can take up PI. The percent of live cells is calculated by the number of cells not stained with PI, divided by the total number of cells in the sample. The viability values calculated for the drug treated groups were compared to the viability value calculated for the vehicle treated mitogen stimulated group (“vehicle positive control”) to determine the “percent change from control”. This “percent change from control” value is an indicator of drug toxicity.
The quantity of soluble TNF-α, TNF-R p75/80 and TNF-R p55160 and IL-8 in the TCS of the THP-1 cell cultures are obtained with commercially available ELISAs from R&D Systems, by extrapolation from a standard curve generated with kit standards. The number of cells that either take up or exclude PI are measured by the FLOW cytometry machine and visualized by histograms using commercially available Cytologic software for each treatment group including all controls.
Biological variability in the magnitude of the response of THP-1 cell cultures requires that experiments be compared on the basis of percent change from “vehicle positive control” for each drug concentration. Percent change in each soluble protein evaluated from the “vehicle positive control” was calculated for each compound concentration with the following formula: [formula]
For the soluble protein (TNF-α, p75/80, p55/60, IL-8) studies under stimulated conditions, the mean pg/ml of duplicate wells were determined and the results expressed as percent change from “vehicle positive control”. For the soluble protein (p75/80 and p55/60 receptors) studies under non-stimulated conditions, the mean pg/ml of duplicate wells were determined and the results expressed as percent change from “vehicle positive control” utilizing the following formula: [formula]
IC50 values for each compound are calculated by non-linear regression analysis using customized software utilizing the JUMP statistical package.
For the cell viability studies, the viabilities (PI exclusion) of pooled duplicate wells were determined and the results expressed as % change from “vehicle positive control”.

This note sets out measurements from patent publication US6753337B2, “Alkynyl containing hydroxamic acid compounds as matrix metalloproteinase/tace inhibitors” (Wyeth Holdings Corporation, priority 1999, dated 2004).

The IC50 is the concentration needed to halve the response being measured. A high value points to weaker potency. A word on the inhibition: it is the drop in the measured response relative to a control, in per cent.

Counter-ions that a name gives are not always drawn.

Sequence of TNF-α converting enzyme (TACE) (P78536 215-824): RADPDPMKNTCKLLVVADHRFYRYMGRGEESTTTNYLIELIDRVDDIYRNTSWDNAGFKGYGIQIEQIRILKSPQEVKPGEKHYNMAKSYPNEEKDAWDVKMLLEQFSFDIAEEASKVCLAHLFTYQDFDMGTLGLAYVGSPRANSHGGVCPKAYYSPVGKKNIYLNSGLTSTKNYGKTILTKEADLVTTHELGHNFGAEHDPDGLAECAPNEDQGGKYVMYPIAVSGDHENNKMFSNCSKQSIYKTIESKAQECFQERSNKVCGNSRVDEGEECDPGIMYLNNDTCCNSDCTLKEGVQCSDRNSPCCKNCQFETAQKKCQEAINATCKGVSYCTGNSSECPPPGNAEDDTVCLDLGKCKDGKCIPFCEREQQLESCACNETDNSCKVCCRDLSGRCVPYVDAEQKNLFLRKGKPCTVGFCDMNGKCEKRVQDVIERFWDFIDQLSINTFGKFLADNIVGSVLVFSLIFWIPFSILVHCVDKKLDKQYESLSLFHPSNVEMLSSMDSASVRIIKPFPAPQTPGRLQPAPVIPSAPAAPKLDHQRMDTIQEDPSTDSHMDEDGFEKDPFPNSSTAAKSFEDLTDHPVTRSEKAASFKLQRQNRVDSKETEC

For the molecule `CC#CCOc1ccc([S+]([O-])CC2(C(=O)NO)CCN(C(=O)OC(C)(C)C)CC2)cc1` (stereo not drawn) [Example 32, tert-Butyl-4-({[4-(2-butynyloxy)phenyl]sulfinyl}methyl)-4-[(hydroxyamino)-carbonyl]-1-piperidinecarboxylate], half-maximal inhibition in test [1] (IC50) required 100 nM. Moreover, the inhibition at 3 µM in test [2] is 0%.
Consider `CC#CCOc1ccc([S+]([O-])CC2(C(=O)NO)CCNCC2)cc1` (stereo not drawn) [Example 33, 4-[[[4-(2-Butynyloxy)phenyl]sulfinyl]methyl]-N-hydroxy-4-piperidinecarboxamide], for which, in test [1], it took 327 nM to reach half-maximal inhibition (IC50). In addition, the inhibition at 3 µM in test [2] was found to be 8%.
On the same counts, the results for `CC#CCOc1ccc(S(=O)(=O)CC2(C(=O)NO)CCN(C(=O)OC(C)(C)C)CC2)cc1` [Example 34, tert-Butyl-4-({[4-(but-2-ynyloxy)phenyl]sulfonyl}methyl)-4-[(hydroxyamino)-carbonyl]piperidine-1-carboxylate] are 33 nM and 68%.
For the molecule `CC#CCOc1ccc(S(=O)(=O)CC2(C(=O)NO)CCN(C(C)=O)CC2)cc1` [Example 36, 1-Acetyl-4-[[[4-(2-butynyloxy)phenyl]sulfonyl]methyl]-N-hydroxy-4-piperidinecarboxamide], the half-inhibitory concentration (IC50) in test [1] was determined as 4.8 nM. For the same molecule, the inhibition at 3 µM in test [2] was 58%.
`CC#CCOc1ccc(S(=O)(=O)CC2(C(=O)NO)CCN(C(=O)NC(C)(C)C)CC2)cc1` [Example 38] yielded an IC50 in test [1] of 19 nM. The inhibition at 3 µM in test [2] was determined as 53%.
On the same counts, the results for `CC#CCOc1ccc(S(=O)(=O)CC2(C(=O)NO)CCN(C(=O)OCc3ccccc3)CC2)cc1` [Example 40, Benzyl 4-({[4-(2-butynyloxy)phenyl]sulfonyl}methyl)-4-[(hydroxyamino)-carbonyl]-1-piperidinecarboxylate] are 63 nM and 41%.
As to `CC#CCOc1ccc(S(=O)(=O)CC2(C(=O)NO)CCN(Cc3ccccc3)CC2)cc1` [Example 41], half-maximal inhibition in test [1] (IC50) was put at 37 nM. For the same molecule, the inhibition at 3 µM in test [2] was determined as 60%.
In the case of `CC#CCOc1ccc(S(=O)(=O)CC2(C(=O)NO)CCN(C(=O)C3(C)COC(C)(C)OC3)CC2)cc1` [Example 42, 4-({[4-(2-Butynyloxy)phenyl]sulfonyl}methyl)-N-hydroxy-1-[(2,2,5-trimethyl-1,3-dioxan-5-yl)carbonyl]-4-piperidinecarboxamide], 12 nM corresponded to half-maximal inhibition in test [1] (IC50). In test [2], the inhibition at 3 µM was 78%.
Consider `CC#CCOc1ccc(S(=O)(=O)CC2(C(=O)NO)CCN(C(=O)C(C)(CO)CO)CC2)cc1` [Example 43, 4-({[4-(2-Butynyloxy)phenyl]sulfonyl}methyl)-N-hydroxy-1-[3-hydroxy-2-(hydroxymethyl)-2-methylpropanoyl]-4-piperidinecarboxamide], for which, in test [1], inhibition was half-maximal at 13 nM (IC50). The inhibition at 3 µM in test [2] was found to be 66%.
On the same counts, the results for `CC#CCOc1ccc(S(=O)(=O)CC2(C(=O)NO)CCN(C(=N)N)CC2)cc1` [Example 44] are 56 nM and 49%.
In test [1], `CC#CCOc1ccc(S(=O)(=O)CC2(C(=O)NO)CCN(CC#CCO)CC2)cc1` [Example 45] came in with an IC50 of 25 nM. In addition, the inhibition at 3 µM in test [2] was 48%.
In turn, `CC#CCOc1ccc(S(=O)(=O)C2(C(=O)NO)CCN(C(C)=O)CC2)cc1` [Example 64, 1-Acetyl-4-(4-but-2-ynyloxybenzenesulfonyl)piperidine-4-carboxylic acid hydroxamide] displayed an IC50 in test [1] of 47 nM. In test [2], the inhibition at 3 µM stood at 30%.
On to `CC#CCOc1ccc(S(=O)(=O)C2(C(=O)NO)CCN(C(=O)c3ccccc3)CC2)cc1` [Example 65, 1-Benzoyl-4-(4-but-2-ynyloxybenzenesulfonyl)piperidine-4-carboxylic acid hydroxamide], for which the IC50 in test [1] was 73 nM. In addition, the inhibition at 3 µM in test [2] came out at 3%.
On the same counts, the results for `CC#CCOc1ccc(S(=O)(=O)C2(C(=O)NO)CCN(C(=O)c3ccc(OC)cc3)CC2)cc1` [Example 66, 1-(4-Methoxybenzoyl)-4-(4-but-2-ynyloxybenzenesulfonyl)piperidine-4-carboxylic acid hydroxamide] are 106 nM and 73%.
As to `CC#CCOc1ccc(S(=O)(=O)C2(C(=O)NO)CCN(C(=O)N3CCCC3)CC2)cc1` [Example 67, 4-(4-But-2-ynyloxybenzenesulfonyl)-N-hydroxy-1-(pyrrolidine-1-carbonyl)-4-piperidinecarboxamide], the IC50 in test [1] turned out to be 72 nM. Also, the inhibition at 3 µM in test [2] was determined as 18%.
For the molecule `CC#CCOc1ccc(S(=O)(=O)C2(C(=O)NO)CCN(C(=O)OCC)CC2)cc1` [Example 68, Ethyl 4-(4-but-2-ynyloxybenzenesulfonyl)-4-[(hydroxyamino)-carbonyl]-1-piperidinecarboxylate], the IC50 in test [1] is 77 nM. Also, the inhibition at 3 µM in test [2] amounted to 10%.
The matching figures for `CC#CCOc1ccc(S(=O)(=O)C2(C(=O)NO)CCN(S(=O)(=O)C(F)(F)F)CC2)cc1` [Example 69, 4-(4-But-2-ynyloxybenzenesulfonyl)-N-hydroxy-1-[(trifluoromethyl)-sulfonyl]-4-piperidinecarboxamide]: 115 nM and 14%.
Molecule `CC#CCOc1ccc(S(=O)(=O)C2(C(=O)NO)CCN(C(=O)c3cccnc3)CC2)cc1` [Example 70, 4-(4-But-2-ynyloxybenzenesulfonyl)-N-hydroxy-1-(3-pyridinylcarbonyl)-4-piperidinecarboxamide] displayed an IC50 in test [1] of 87 nM. Further, in test [2], the inhibition at 3 µM was determined as 62%.
The matching figures for `CC#CCOc1ccc(S(=O)(=O)C2(C(=O)NO)CCN(C(=O)c3cccs3)CC2)cc1` [Example 71, 4-(4-but-2-ynyloxybenzenesulfonyl)-N-hydroxy-1-(2-thienylcarbonyl)-4-piperidinecarboxamide]: 113 nM and 14%.
`CC#CCOc1ccc(S(=O)(=O)C2(C(=O)NO)CCN(S(=O)(=O)c3ccc(OC)cc3)CC2)cc1` [Example 72, 4-(4-but-2-ynyloxybenzenesulfonyl)-N-hydroxy-1-[(4-methoxyphenyl)-sulfonyl]-4-piperidinecarboxamide] came in with an IC50 in test [1] of 221 nM. Moreover, the inhibition at 3 µM in test [2] is 56%.
The matching figures for `CC#CCOc1ccc(S(=O)(=O)C2(C(=O)NO)CCN(C(=O)C(C)(CO)CO)CC2)cc1` [Example 74, 4-(4-But-2-ynyloxybenzenesulfonyl)-N-hydroxy-1-[3-hydroxy-2-(hydroxymethyl)-2-methylpropanoyl]-4-piperidinecarboxamide]: 132 nM and 39%.
In test [1], `CC#CCOc1ccc(S(=O)(=O)C2(C(=O)NO)CCN(C(=O)OC(C)(C)C)CC2)cc1` [Example 75, Tert-butyl 4-{[4-(2-butynyloxy)phenyl]sulfonyl}-4-[(hydroxyamino)carbonyl-]-1-piperidinecarboxalate] yielded an IC50 of 134 nM. Also, the inhibition at 3 µM in test [2] is -4%.
The matching figures for `CC#CCOc1ccc(S(=O)(=O)C2(C(=O)NO)CCNCC2)cc1` [Example 76, 4-{[4-(2-butynyloxy)phenyl]sulfonyl}-N-hydroxy-4-piperidinecarboxamide hydrochloride]: 201 nM and 26%.
On the same counts, the results for `CC#CCOc1ccc(S(=O)(=O)C2(C(=O)NO)CCN(Cc3ccc(C(=O)OC)cc3)CC2)cc1` [Example 77, hydrochloride] are 114 nM and 52%.
